Test results published in patent US20120022149A1, “PHARMACEUTICAL COMPOSITION WITH ENHANCED SOLUBILITY CHARACTERISTICS” (priority 2010, published 2012).

Assay: Solubility of olopatadine in PEG 6000 and/or PVP vehicles
Type: physicochemical
Settings: Table 1 and FIG. 1

In the case of `CN(C)CC/C=C1/c2ccccc2COc2ccc(CC(=O)O)cc21` [olopatadine], the “solubility of olopatadine relative to the concentration of PEG6000” value was “essentially linear”.
